Format in all cases: functional
The test system of test [1] is Mycobacterium tuberculosis. The test is described as follows: Antitubercular activity against isoniazid, rifampicin and ethambutol-resistant Mycobacterium tuberculosis clinical isolate after 28 days by agar dilution method. The conditions noted are these: 672 h. (In general: In agar dilution, organisms are placed on agar that contains the substance at set levels.)
Test [2] concerns Mycobacterium tuberculosis. Kind of test: Ratio of ciprofloxacin MIC to compound MIC for multidrug-resistant Mycobacterium tuberculosis clinical isolate.
In test [3] the test system is Mycobacterium tuberculosis. The test is described as follows: Ratio of isoniazid MIC to compound MIC for multidrug-resistant Mycobacterium tuberculosis clinical isolate.
Test [4] concerns Mycobacterium tuberculosis. Kind of test: Ratio of rifampicin MIC to compound MIC for multidrug-resistant Mycobacterium tuberculosis clinical isolate.
In test [5] the test system is Mycobacterium tuberculosis. Kind of test: Ratio of ethambutol MIC to compound MIC for multidrug-resistant Mycobacterium tuberculosis clinical isolate.

≈ marks a conversion by molar mass, not a printed value.

What is called MIC is the least concentration at which growth counts as inhibited. A higher MIC goes with a need for much substance.

For the compound `Cc1ccc(/C=C2\CN([C@H](C)c3ccccc3)CC3=C2OC(N)=C(c2nc(-c4ccc(Cl)cc4)no2)C3c2ccc(C)cc2)cc1` (stereo in doubt; 9d), the MIC in test [1] turned out to be 1.24 µM (≈ 0.778 µg/mL).

Consider `C[C@H](c1ccccc1)N1CC2=C(OC(N)=C(c3nc(-c4ccccc4)no3)C2c2ccccc2Cl)/C(=C/c2ccccc2Cl)C1` (stereo in doubt; 9e), for which, in test [1], the MIC is 1.23 µM (≈ 0.779 µg/mL).

`C[C@H](c1ccccc1)N1CC2=C(OC(N)=C(c3nc(-c4ccc(Cl)cc4)no3)C2c2ccccc2Cl)/C(=C/c2ccccc2Cl)C1` (stereo in doubt; 9f) displayed a minimal inhibitory concentration (MIC) in test [1] of 0.6 µM (≈ 0.401 µg/mL).

For the compound `C[C@H](c1ccccc1)N1CC2=C(OC(N)=C(c3nc(-c4ccccc4)no3)C2c2ccc(Cl)cc2Cl)/C(=C/c2ccc(Cl)cc2Cl)C1` (stereo in doubt; 9g), in test [1], it took 0.57 µM (≈ 0.4 µg/mL) to inhibit growth (MIC).

Turning to `C[C@H](c1ccccc1)N1CC2=C(OC(N)=C(c3nc(-c4ccc(Cl)cc4)no3)C2c2ccc(Cl)cc2Cl)/C(=C/c2ccc(Cl)cc2Cl)C1` (stereo in doubt; 9h), the Ratio in test [2] was 269.5; in test [3], 81.3; in test [4], 27.1; in test [5], 437. Besides, in test [1], it took 0.14 µM (≈ 0.103 µg/mL) to inhibit growth (MIC).

Regarding `C[C@H](c1ccccc1)N1CC2=C(OC(N)=C(c3nc(-c4ccccc4)no3)C2c2ccccc2)/C(=C/c2ccccc2)C1` (stereo in doubt; 10a), the MIC in test [1] came out at 5.54 µM (≈ 3.13 µg/mL).

Compound `C[C@H](c1ccccc1)N1CC2=C(OC(N)=C(c3nc(-c4ccc(Cl)cc4)no3)C2c2ccccc2)/C(=C/c2ccccc2)C1` (stereo in doubt; 10b) had an MIC in test [1] of 2.6 µM (≈ 1.56 µg/mL).

`CC[C@@H](CO)NCCN[C@@H](CC)CO` [ETHAMBUTOL] gave an MIC in test [1] of 61.2 µM (≈ 12.5 µg/mL).

For the compound `NNC(=O)c1ccncc1` [ISONIAZID], in test [1], the MIC stood at 11.4 µM (≈ 1.56 µg/mL).

`CO[C@H]1/C=C/O[C@@]2(C)Oc3c(C)c(O)c4c(O)c(c(/C=N/N5CCN(C)CC5)c(O)c4c3C2=O)NC(=O)/C(C)=C\C=C\[C@H](C)[C@H](O)[C@@H](C)[C@@H](O)[C@@H](C)[C@H](OC(C)=O)[C@@H]1C` [RIFAMPIN]: 3.8 µM (≈ 3.13 µg/mL) was the least that counted as inhibitory in test [1] (MIC).

Source of the values: ChEMBL document CHEMBL2034835, “A solvent free, four-component synthesis and 1,3-dipolar cycloaddition of 4(H)-pyrans with nitrile oxides: synthesis and discovery of antimycobacterial activity of enantiomerically pure 1,2,4-oxadiazoles” (2012).
